In patent US20050101595A1, “N-containing cycloalkyl-substituted amino-thiazole derivatives and pharmaceutical compositions for inhibiting cell proliferation and methods for their use” (PFIZER INC., priority 2003, published 2005):
Where a name gives a salt, the structure may show the parent alone. Read-outs that look alike come from different tables or passages of the source.

Legend:
[1] = system: HCT-116 cell line; test: Inhibition of cell growth, tetrazolium salt (MTT) assay; assay type: cell-based; conditions: for IC50: Homo sapiens, HCT-116, 120 h, MTT, three to five days, read-out: HCT-116 IC50; for HCT-116 % Inhibition at 0.25 μM: 0.25 μM compound
Summary of the method: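 MTT colorimetric viability: three-to-five-day compound exposure in 0.5% (v/v) DMSO at 37° C, MTT 0.2 mg/mL for the last 4 h, A540 compared with vehicle-treated cells.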

[2] = molecular target: CDK2/Cyclin A (Homo sapiens, UniProt P24941); test: Inhibition of CDK2/Cyclin A Retinoblastoma Kinase Activity; assay type: biochemical; conditions: for Ki: apparent Ki, CDK2/proteolyzed cyclin A, Rb fragment substrate, 25 μM ATP; for CDK2 % Inhibition At 0.03 μM: Table 2
Summary of the method: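 Radiometric filter-binding readout of phosphate transfer to an Rb substrate fragment by purified CDK2/truncated cyclin A at 10 or 19 nM. Run at pH 7.4 with 25 μM ATP, 30 °C, 60–75 min, linear rates; background without enzyme subtracted, Ki from competitive-inhibition models.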

[3] = molecular target: human CDK4 and genetically truncated (1-264) cyclin D3 (Homo sapiens, UniProt P11802); test: Inhibition of CDK4/Cyclin D Retinoblastoma Kinase Activity; assay type: biochemical; conditions: for Ki: apparent Ki, CDK4/truncated cyclin D3, Rb fragment substrate, 25 μM ATP
Summary of the method: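 Apparent Ki values come from competitive or competitive tight-binding inhibition fits of background-corrected 32P/33P incorporation into His-tagged Rb fragment (386-928), captured on nitrocellulose. Reaction: 5 nM insect-cell-expressed human CDK4 with cyclin D3 (1-264), 25 μM ATP, pH 7.4 HEPES, 2% DMSO, 30° C., 20 min, extended to 60 min for tight-binding inhibitors.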

Sequence of human CDK4 and genetically truncated (1-264) cyclin D3 (P11802 whole entry, the tested form may be a part): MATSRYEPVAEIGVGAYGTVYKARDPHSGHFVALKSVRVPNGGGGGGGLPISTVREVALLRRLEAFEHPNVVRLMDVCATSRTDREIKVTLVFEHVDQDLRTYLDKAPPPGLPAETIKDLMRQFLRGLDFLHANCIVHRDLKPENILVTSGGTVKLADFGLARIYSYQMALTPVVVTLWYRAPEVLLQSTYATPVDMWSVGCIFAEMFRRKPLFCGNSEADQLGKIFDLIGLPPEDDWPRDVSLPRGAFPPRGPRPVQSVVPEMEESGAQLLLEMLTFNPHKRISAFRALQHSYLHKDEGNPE
Sequence of human CDK4 and genetically truncated (1-264) cyclin D3 (P30281 1-264 partner): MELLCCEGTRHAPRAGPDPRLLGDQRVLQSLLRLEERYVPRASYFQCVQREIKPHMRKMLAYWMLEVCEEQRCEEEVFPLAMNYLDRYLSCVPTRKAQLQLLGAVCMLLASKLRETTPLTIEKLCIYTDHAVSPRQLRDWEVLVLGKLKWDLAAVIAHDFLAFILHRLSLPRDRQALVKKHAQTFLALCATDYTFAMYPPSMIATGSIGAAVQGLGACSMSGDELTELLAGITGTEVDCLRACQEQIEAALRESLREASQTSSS

Structure (SMILES) | IC50 ([1]; first HCT-116 column (c4)) [nM] | IC50 ([1]; second HCT-116 column (c5)) [nM] | Ki [2] [nM] | Ki [3] [nM] | also measured
Nc1nc(NC2CCN(C(=S)Oc3ccc(F)cc3)CC2)sc1C(=O)c1c(F)cccc1F [Example C11, 4-[4-Amino-5-(2,6-difluoro-benzoyl)-thiazol-2-ylamino}-piperidine-1-carbothioic acid —O-(4-Fluoro-phenyl) ester] | 400 | 2700 | 6.5 | 10 | 
CN1CCN(CCc2ccc(S(=O)(=O)N3CCC(Nc4nc(N)c(C(=O)c5c(F)cccc5F)s4)CC3)cn2)CC1 [Example N4, [4-Amino-2-(1-{6-[2-(4-methyl-piperazin-1-yl)-ethyl]-pyridine-3-sulfonyl}-piperidin-4-ylamino)-thiazol-5-yl]-(2,6-difluoro-phenyl)-methanone Hydrochloride Salt.] | 360 | > 500 | 1.7 | 0.92 | 
CC(NC(=O)N1CCC(Nc2nc(N)c(C(=O)c3c(F)cccc3F)s2)CC1)c1cccc2ccccc12 (centres unmarked) [Example O67] |  |  |  |  | HCT-116 % Inhibition at 0.25 μM ([1]; HCT-116, Table 2): 50%; CDK2 % Inhibition At 0.03 μM ([2]; 0.03 μM compound): 31%; CDK4 % Inhibition at 0.03 μM ([3]; 0.03 μM compound, Table 2): 8%
Cc1ccc(O)c(C(=O)N2CCC(Nc3nc(N)c(C(=O)c4c(F)cccc4F)s3)CC2)c1 [Example R122] |  |  |  |  | HCT-116 % Inhibition at 0.1 μM ([1]; HCT-116 cells, at 0.1 μM): 0%; HCT-116 5 Inhibition at 0.25 μM ([1]; HCT-116 cells): 48; CDK2 % Inhibition at 0.03 μM ([2]; at 0.03 μM): 61%; CDK4 % Inhibition at 0.03 μM ([3]; at 0.03 μM): 67%
Cc1cc(C)c(NC(=O)N2CCC(Nc3nc(N)c(C(=O)c4c(F)cccc4F)s3)CC2)c(C)c1 [Example O55] |  |  |  |  | HCT-116 % Inhibition at 0.25 μM ([1]; HCT-116, Table 2): 41%; CDK2 % Inhibition At 0.03 μM ([2]; 0.03 μM compound): 28%; CDK4 % Inhibition at 0.03 μM ([3]; 0.03 μM compound, Table 2): 10%
CN(C)CCOc1ncc(S(=O)(=O)N2CCC(Nc3nc(N)c(C(=O)c4c(F)cccc4F)s3)CC2)cn1 [Example H24, (4-Amino-2-{1-[2-(2-dimethylamino-ethoxy)-pyrimidine-5-sulfonyl]-piperidin-4-ylamino}-thiazol-5-yl)-(2,6-difluoro-phenyl)-methanone Trifluoroacetic Acid Salt] | 140 | 2000 | 1.8 | 0.41 | 
CCN(CC)CCOc1ccc(S(=O)(=O)N2CCC(Nc3nc(N)c(C(=O)c4c(F)cccc4F)s3)CC2)cn1 [Example H18, (4-Amino-2-{1-[6-(2-diethylamino-ethoxy)-pyridine-3-sulfonyl]-piperidin-4-ylamino}-thiazol-5-yl)-(2,6-difluoro-phenyl)-methanone Trifluoroacetic Acid Salt] | 55 | > 500 | 1.6 | 0.3 | 
CN(C)c1cccc2c(S(=O)(=O)N3CCC(Nc4nc(N)c(C(=O)c5c(F)cccc5F)s4)CC3)cccc12 [Example P2] |  |  |  |  | HCT-116 % Inhibition at 0.1 μM ([1]; 0.1 μM compound, HCT-116, Table 3): 15%; HCT-116 % Inhibition at 0.25 μM ([1]; HCT-116, Table 3): 24%; CDK2 % Inhibition at 0.03 μM ([2]; 0.03 μM compound, Table 3): 43%; CDK4 % Inhibition at 0.03 μM ([3]; 0.03 μM compound, Table 3): 69%
Nc1nc(NC2CCN(C(=O)c3cccc(Cl)c3Cl)CC2)sc1C(=O)c1c(F)cccc1F [Example R106] |  |  |  |  | HCT-116 % Inhibition at 0.1 μM ([1]; HCT-116 cells, at 0.1 μM): 2%; HCT-116 5 Inhibition at 0.25 μM ([1]; HCT-116 cells): 72; CDK2 % Inhibition at 0.03 μM ([2]; at 0.03 μM): 2%; CDK4 % Inhibition at 0.03 μM ([3]; at 0.03 μM): 19%
Nc1nc(NC2CCN(S(=O)(=O)CCNCc3cccc(F)c3F)CC2)sc1C(=O)c1c(F)cccc1F [Example K45, (4-Amino-2-{1-[2-(2,3-difluoro-benzylamino)-ethanesulfonyl]-piperidin-4-ylamino}-thiazol-5-yl)-(2,6-difluoro-phenyl)-methanone] | 50 | 170 | 0.82 | 1 | 
Nc1nc(NC2CCN(C(=O)CCN3CCCCC3)CC2)sc1C(=O)c1c(F)cccc1F [Example D3, 1-(4-[4-Amino-5-(2,6-difluoro-benzoyl)-thiazol-2-ylamino}-piperidin-1-yl)-3-piperidin-1-yl-propan-1-one] | > 5000 |  | 400 | 71 | 
